Converted amounts (≈) assume the structure as drawn.
Tests used:
[1] = tested on: Raw 264.7 cells infected with H37Rv-GFP; experiment: microbe, parasite or virus in culture; assay type: cell-based, M. tuberculosis; conditions: Mycobacterium tuberculosis, H37RV, 120 h; read-out: QIM (MIC50)
[2] = tested on: M. tuberculosis H37Rv expressing the green fluorescent protein (H37Rv-GFP); experiment: microbe, parasite or virus in culture; assay type: cell-based; conditions: Mycobacterium tuberculosis, H37RV, 120 h; read-out: QUM (MIC50)

Row | Structure (SMILES) | MIC50 [1] [µM] | melting point [°C] | MIC50 [2] [µM]
1 | COc1ccc(C(=O)Nc2cc3sc(N4CCCCC4)nc3s2)cc1 [Compound 98] | > 20 | 92 | > 20
2 | Cn1ncc2ccc(NC(=O)c3cc4sc(N5CCOCC5)nc4s3)cc21 [Compound 131] | > 20 | 288 | > 20
3 | O=C(Nc1ccc(OC(F)(F)F)cc1)c1cc2sc(N3CCCCC3)nc2s1 [Compound 58] | < 1 | 239 | 1 to 20 (≈ 0.427 to 8.55 µg/mL)
4 | CN(C)C(=O)C1CCN(c2nc3sc(C(=O)Nc4ccc(F)nc4)cc3s2)CC1 [Compound 137] | 1 to 20 (≈ 0.434 to 8.67 µg/mL) | 295.9 | < 1
5 | O=C(Nc1ccc(Oc2ccccc2)cc1)c1cc2nc(N3CCCCC3)sc2s1 [Compound 15] | > 20 | 225.8 | > 20
6 | COC(=O)c1ccc(CCNC(=O)c2cc3sc(N4CCCCC4)nc3s2)cc1 [Compound 43] | < 1 | 212.9 | 1 to 20 (≈ 0.43 to 8.59 µg/mL)
7 | Cc1nc2cc(NC(=O)c3sc4nc(N5CCOCC5)sc4c3C)ccc2o1 [Compound 163] | > 20 | 226 | > 20
8 | Cc1cnc(-c2ccc(NC(=O)c3cc4sc(N5CCOCC5)nc4s3)cc2)o1 [Compound 154] | < 1 | 287.3 | < 1
9 | COc1ccc(NC(=O)c2cc3sc(C(C)C)nc3s2)cc1 [Compound 115] | < 1 | 149 | 1 to 20 (≈ 0.332 to 6.65 µg/mL)
10 | Cn1cc(F)c(-c2ccc(NC(=O)c3cc4sc(N5CCOCC5)nc4s3)cc2)n1 [Compound 162] | < 1 | 280.5 | 1 to 20 (≈ 0.444 to 8.87 µg/mL)
11 | O=C(Nc1ccc(F)cc1)c1cc2sc(N3CCC(O)CC3)nc2s1 [Compound 134] | < 1 | 241.7 | < 1
12 | O=C(Nc1ccc(-c2ccn(C3CCCCO3)n2)cc1)c1cc2sc(N3CCOCC3)nc2s1 (stereo not drawn) [Compound 155] | < 1 | 293 | > 20
13 | COc1ccc(NC(=O)c2cc3scnc3s2)cc1 [Compound 75] | > 20 | 212 | 1 to 20 (≈ 0.29 to 5.81 µg/mL)
14 | CCc1cc2oc(C)nc2cc1NC(=O)c1cc2sc(N3CCOCC3)nc2s1 [Compound 150] | > 20 | 244 | > 20
15 | O=C(Nc1ccc(-c2ccccc2)cc1)c1cc2sc(N3CCCCC3)nc2s1 [Compound 39] | < 1 | 231.1 | > 20
16 | CC(=O)c1ccc(NC(=O)c2cc3sc(N4CCOCC4)nc3s2)cc1 [Compound 188] | < 1 | 248 | < 1
17 | COc1ccc(CCNC(=O)c2cc3nc(N4CCCCC4)sc3s2)cc1 [Compound 22] | 1 to 20 (≈ 0.402 to 8.03 µg/mL) | 188 | 1 to 20 (≈ 0.402 to 8.03 µg/mL)
18 | CN(C)C(=O)C1CCN(c2nc3sc(C(=O)n4nc(-c5ccc(N)cc5)cc4O)cc3s2)CC1 [Compound 198] | > 20 | 269 | > 20
19 | CCC1CN(c2nc3sc(C(=O)Nc4ccc5oc(C)nc5c4)cc3s2)CCO1 (stereo not drawn) [Compound 153] | < 1 | 214 | < 1

Row | Structure (SMILES) | MIC50 [1] [µM] | melting point [°C] | MIC50 [2] [µM]
20 | Cc1nc2cc(NC(=O)c3cc4sc(N5CCC(CO)CC5)nc4s3)ccc2o1 [Compound 144] | < 1 | 196.4 | < 1
21 | COc1ccc(NC(=O)c2cc3sc(N4CCC(C(=O)N5CCOCC5)CC4)nc3s2)cc1 [Compound 125] | < 1 | 268 | < 1
22 | Cc1nc2cc(NC(=O)c3cc4sc(N5CCOCC5)nc4s3)c(F)cc2o1 [Compound 181] | > 20 | 287 | > 20
23 | COc1ccc(CN(c2nc3sc(C(=O)Nc4ccc(OC)cc4)cc3s2)C(C)C)cc1 [Compound 121] | < 1 | 131 | > 20
24 | CN(C)C(=O)C1CCN(c2nc3sc(C(=O)Nc4ccc5oc(CN6CCOCC6)nc5c4)cc3s2)CC1 [Compound 196] | 1 to 20 (≈ 0.555 to 11.1 µg/mL) | 239 | 1 to 20 (≈ 0.555 to 11.1 µg/mL)
25 | COc1ccc(NC(=O)c2ccc3nc(N4CCCCC4)sc3c2)cc1 [Compound 5] | > 20 | 214 | > 20
26 | COc1ccc(CNC(=O)c2cc3nc(N4CCCCC4)sc3s2)cc1 [Compound 7] | > 20 | 179 | > 20
27 | O=C(Nc1ccc(F)cc1)c1cc2sc(N3CCC(CO)CC3)nc2s1 [Compound 142] | < 1 | 246.3 | < 1
28 | N#Cc1ccc(NC(=O)c2cc3nc(N4CCCCC4)sc3s2)cc1 [Compound 32] | < 1 | 163 | 1 to 20 (≈ 0.368 to 7.37 µg/mL)
29 | COc1ccc(NC(=O)c2cc3sc(N4CCCC(OCc5ccccc5)C4)nc3s2)cc1 (stereo not drawn) [Compound 95] | < 1 | 169 | > 20
30 | Cc1nnc(-c2ccc(NC(=O)c3cc4sc(N5CCOCC5)nc4s3)cc2)o1 [Compound 103] | < 1 | 319.1 | < 1
31 | Cc1nnc(-c2ccc(NC(=O)c3cc4sc(N5CCC(O)CC5)nc4s3)cc2)o1 [Compound 123] | > 20 | 334.4 | > 20
32 | O=C(Nc1ccc(C(F)(F)F)cc1)c1cc2sc(N3CCCCC3)nc2s1 [Compound 41] | < 1 | 289.2 | > 20
33 | Cc1nc2cc(Cl)c(NC(=O)c3cc4sc(N5CCOCC5)nc4s3)cc2o1 [Compound 147] | > 20 | 275.3 | > 20
34 | COc1cc(NC(=O)c2cc3nc(N4CCCCC4)sc3s2)cc(OC)c1 [Compound 4] | > 20 | 231.2 | > 20
35 | COc1ccc(NC(=O)c2cc3sc(N4CC5CC4CN5C(=O)OC(C)(C)C)nc3s2)cc1 (stereo not drawn) [Compound 93] | > 20 | 249 | > 20
36 | Cc1nc2cc(NC(=O)c3cc4sc(N5CCOCC5)nc4s3)ccc2o1 [Compound 83] | < 1 | 268.3 | < 1
37 | Cc1nc2cc(NC(=O)c3cc4sc(N5CCC(C(=O)N(C)C)C5)nc4s3)ccc2o1 (stereo not drawn) [Compound 192] | 1 to 20 (≈ 0.456 to 9.11 µg/mL) | 274 | 1 to 20 (≈ 0.456 to 9.11 µg/mL)
38 | Cn1cnc2cc(NC(=O)c3cc4sc(N5CCOCC5)nc4s3)ccc21 [Compound 116] | 1 to 20 (≈ 0.4 to 7.99 µg/mL) | 291 | > 20

Row | Structure (SMILES) | MIC50 [1] [µM] | melting point [°C] | MIC50 [2] [µM]
39 | O=C(Nc1ccc(F)c(F)c1)c1cc2sc(N3CCCCC3)nc2s1 [Compound 36] | < 1 | 218 | 1 to 20 (≈ 0.379 to 7.59 µg/mL)
40 | COC(=O)C1CCC(NC(=O)c2cc3sc(N4CCCCC4)nc3s2)CC1 (stereo not drawn) [Compound 60] | 1 to 20 (≈ 0.408 to 8.15 µg/mL) | 74 | 1 to 20 (≈ 0.408 to 8.15 µg/mL)
41 | COC(=O)C1CCN(C(=O)c2cc3sc(N4CCCCC4)nc3s2)CC1 [Compound 56] | 1 to 20 (≈ 0.394 to 7.87 µg/mL) | 136 | 1 to 20 (≈ 0.394 to 7.87 µg/mL)
42 | COc1ccc(NC(=O)c2cc3sc(NC(=O)C4CCCCC4)nc3s2)cc1 [Compound 65] | 1 to 20 (≈ 0.416 to 8.31 µg/mL) | 271 | > 20
43 | O=C(Nc1ccc(C(F)(F)F)cc1)c1cc2sc(N3CCOCC3)nc2s1 [Compound 107] | < 1 | 259.3 | > 20
44 | COc1ncc(NC(=O)c2cc3nc(N4CCCCC4)sc3s2)cn1 [Compound 6] | 1 to 20 (≈ 0.375 to 7.51 µg/mL) | 274 | 1 to 20 (≈ 0.375 to 7.51 µg/mL)
45 | Cc1nc2ccc(NC(=O)c3cc4sc(N5CCCCC5)nc4s3)cc2o1 [Compound 48] | < 1 | 259.2 | < 1
46 | O=C(Nc1ccc(-n2ccnc2)cc1)c1cc2sc(N3CCOCC3)nc2s1 [Compound 182] | > 20 | 266 | > 20
47 | COc1c(C(=O)Nc2ccc3oc(C)nc3c2)sc2nc(N3CCOCC3)sc12 [Compound 172] | > 20 | 269 | > 20
48 | O=C(Nc1ccc(Oc2ccccc2)cc1)c1cc2sc(N3CCCCC3)nc2s1 [Compound 61] | < 1 | 201 | 1 to 20 (≈ 0.436 to 8.71 µg/mL)
49 | Cc1nc2cc(NC(=O)c3cc4sc(N5CCOCC5C(=O)N(C)C)nc4s3)ccc2o1 (stereo not drawn) [Compound 175] | > 20 | 288.6 | > 20
50 | COc1ccc(NC(=O)c2cc3sc(N4CCOCC4)nc3s2)cc1 [Compound 66] | < 1 | 248.8 | 1 to 20 (≈ 0.375 to 7.51 µg/mL)
51 | O=C(Nc1ccc(OC(F)(F)F)cc1)c1cc2nc(N3CCCCC3)sc2s1 [Compound 14] | < 1 | 238 | 1 to 20 (≈ 0.427 to 8.55 µg/mL)
52 | COc1ccc(NC(=O)c2cc3sc(NCc4ccc(OC)nc4)nc3s2)cc1 [Compound 104] | < 1 | 230.9 | < 1
53 | CC1CCN(c2ccc(NC(=O)c3cc4sc(N5CCOCC5)nc4s3)cc2)CC1 [Compound 194] | < 1 | 278 | 1 to 20 (≈ 0.443 to 8.85 µg/mL)
54 | Cc1nc2cc(NC(=O)c3cc4sc(N5CCCC(C(=O)N(C)C)C5)nc4s3)ccc2o1 (stereo not drawn) [Compound 178] | 1 to 20 (≈ 0.47 to 9.39 µg/mL) | 133.6 | 1 to 20 (≈ 0.47 to 9.39 µg/mL)
55 | Cn1cnc2ccc(NC(=O)c3cc4sc(N5CCOCC5)nc4s3)cc21 [Compound 117] | > 20 | 314 | > 20
56 | COCn1c(N2CCOCC2)nc2sc(C(=O)Nc3ccc4oc(C)nc4c3)cc21 [Compound 179] | > 20 | 117.2 | > 20
